The numbers were not newly measured in patent publication US11304968B2, “Pharmaceutical compositions comprising a hydroxyethylquercetin glucuronide” (JANSSEN PHARMACEUTICA NV, priority 2018, dated 2022), which cites them from elsewhere.

Data set [1] has as its system cortisol levels. As to conditions: depressed, stressed rats.
The subject of data set [2] is anxiety and depressive behaviors in the offspring. The settings on record: pregnant rats fed a high fat diet.
Assay in data set [3]: not given
The source holds these as a separate data set.

The conditions of data set [4]: humans, oral; baicalin 616 mg with baicalein 52.5 mg; wogonoside 117.2 mg with wogonin 32 mg.
The conditions of data set [5]: rat.
In data set [6] the test system is cortisol response. As to conditions: in vitro.
The conditions of data set [7]: human, in vivo, po.
The conditions of data set [8]: rat, in vivo, po.

Regarding `C[C@@H]1O[C@@H](OC[C@H]2O[C@@H](Oc3c(-c4ccc(OCCO)c(OCCO)c4)oc4cc(OCCO)cc(O)c4c3=O)[C@H](O)[C@@H](O)[C@@H]2O)[C@H](O)[C@H](O)[C@H]1O` [troxerutin, 7,3′,4′-trihydroxyethylrutoside], the “effect on cortisol levels” value in [1] is listed as “decreased cortisol levels”. Also, in data set [2], the “anxiety and depressive behaviors in the offspring” value is “reduced anxiety and depressive behaviors in the offspring”.

Consider `O=C(O)[C@H]1O[C@@H](Oc2cc3oc(-c4ccc(O)cc4)cc(=O)c3c(O)c2O)[C@H](O)[C@@H](O)[C@@H]1O` [scutellarin], for which the pKa entry is reported as “about 2.7”. The solubility in water result in data set [3] is “poorly soluble in water”.

Take `O=C(O)[C@H]1O[C@@H](Oc2cc3oc(-c4ccccc4)cc(=O)c3c(O)c2O)[C@H](O)[C@@H](O)[C@@H]1O` [baicalin]: the “urinary COV of metabolites” value in data set [4] is on record as “about 10%”. Also, the site of absorption entry in data set [5] was “preferentially absorbs in the rat stomach”. Besides, the solubility in water entry in [3] is “poorly soluble in water”.

In the case of `C[C@@H]1O[C@@H](OC[C@H]2O[C@@H](Oc3c(-c4ccc(O)c(O)c4)oc4cc(OCCO)cc(O)c4c3=O)[C@H](O)[C@@H](O)[C@@H]2O)[C@H](O)[C@H](O)[C@H]1O` [MonoHER, 7-monohydroxyethylrutoside], the “effect on cortisol response and cortisol resistance” value in data set [6] was “protects the proper cortisol response and decreases cortisol resistance”.

For the molecule “mono-3′-O-hydroxyethyl quercetin-glucuronide [Mono-3′-O-HEQG]”, the “volunteers in whom the metabolite was detectable” value in data set [7] is given as 13 of the 16. Besides, in data set [8], the detectability as metabolite entry is on record as “not detectable”.
